# According to patent publication US9783536B2, “Nitrogen-containing heterocyclic compound or salt thereof” (FUJIFILM Corporation, priority 2013, dated 2017):
# pIC50: −log10 of the molar value. Like-named read-outs stand apart in the source and are kept apart here.
# What was measured:
# [1] = target: T1, GST fusion human ERK2 protein (Homo sapiens, UniProt P28482); test: ERK2 enzyme assay (2); assay type: biochemical; conditions: read-out: ERK2 enzyme inhibitory activity (2)
# T1 construct: purchased Carna Biosciences, Inc; host or cells: E. coli expression system
# Method: In an ERK2 enzyme assay, GLUTATHIONE S-TRANSFERASE (GST) FUSION HUMAN ERK2 PROTEIN (manufactured by Carna Biosciences, Inc.), which was produced by using an E. coli expression system, was used.
# 12 μL of a reaction liquid (1.25 nmol/L ERK2, 100 mmol/L Hepes, 10 mmol/L MgCl2, 1.5 mmol/L DTT, 0.003% Brij35, pH 7.5) including ERK2 protein and a test compound having a predetermined concentration was allowed to stand at room temperature for 15 minutes. Then, 3 μL of a mixture liquid of FL-PEPTIDE8 (5-FAM-IPTSPITTTYFFFKKK-COOH) (manufactured by Caliper Life Sciences), which is substrate peptide, and ATP (manufactured by Sigma-Aldrich Co. LLC.) was added thereto such that the final concentrations thereof became 4.25 μmol/L and 1 mmol/L, respectively, and an enzyme reaction was performed by allowing to stand at 25° C. for 120 minutes.
# After the reaction, the enzyme reaction was stopped by adding 30 μL of a reaction stopper liquid (100 mmol/L HEPES, 11.2 mmol/L EDTA, 5.6% Brij35, pH 7.5) including a 0.5% COATING REAGENT 8 (trade name, manufactured by Perkin Elmer Inc.) thereto. Then, phosphorylated peptide and non-phosphorylated peptide were separated using LABCHIP EZ READER (trade name, manufactured by Caliper Life Sciences), and the porportion of the phosphorylated peptide was quantified.
# (§1) The inhibitory activities of the compounds were evaluated using IC50 (50% inhibitory concentration). The IC50 was calculated using XLFIT (trade name, manufactured by ID Business Solutions).
# human PI3Kα protein = target: T2, human PI3Kα protein (Homo sapiens, UniProt P42336); test: PI3Kα enzyme assay (ADP-Glo); assay type: biochemical; conditions: read-out: PI3Kα enzyme inhibitory activity
# T2 construct: purchased Carna Biosciences, Inc; host or cells: baculovirus expression system
# Method: In a PI3Kα enzyme assay, a product (manufactured by Carna Biosciences, Inc.) obtained by biotinylating a human PI3Kα protein produced by using a baculovirus expression system was used. In addition, in the detection of enzyme activity, ADP-GLO KINASE ASSAY (trade name, manufactured by PROMEGA Corporation) was used.
# 10 μL of a reaction liquid (4.5 nmol/L PI3Kα, 40 mmol/L Tris-HCl, 20 mmol/L MgCl2, 0.1% BSA, pH 7.5) including the human PI3Kα protein and a test compound having a predetermined concentration was allowed to stand at room temperature for 15 minutes. Then, 5 μL of a mixture liquid of L-α-phosphatidylinositol 4,5-diphosphate (PIP2) (manufactured by Sigma-Aldrich Co. LLC.) and ATP (manufactured by Sigma-Aldrich Co. LLC.), which are substrates, was added thereto such that final concentrations thereof became 50 μmol/L and 100 μmol/L, respectively, and an enzyme reaction was performed by allowing to stand at 25° C. for 60 minutes.
# After the reaction, the enzyme reaction was stopped by adding 15 μL of an ADP-GLO REAGENT (trade name, manufactured by PROMEGA Corporation) thereto and allowing to stand at room temperature for 60 minutes. Then, 30 μL of a KINASE DETECTION REAGENT (trade name, manufactured by PROMEGA Corporation) was added thereto, followed by allowing to stand at room temperature for 40 minutes, and ADP produced by the enzyme reaction was quantified by emission intensity.
# ENVISION (trade name, manufactured by Perkin Elmer Inc.) was used for the measurement of the emission intensity.
# as §1
# T1 sequence (P28482 whole entry, the tested form may be a part): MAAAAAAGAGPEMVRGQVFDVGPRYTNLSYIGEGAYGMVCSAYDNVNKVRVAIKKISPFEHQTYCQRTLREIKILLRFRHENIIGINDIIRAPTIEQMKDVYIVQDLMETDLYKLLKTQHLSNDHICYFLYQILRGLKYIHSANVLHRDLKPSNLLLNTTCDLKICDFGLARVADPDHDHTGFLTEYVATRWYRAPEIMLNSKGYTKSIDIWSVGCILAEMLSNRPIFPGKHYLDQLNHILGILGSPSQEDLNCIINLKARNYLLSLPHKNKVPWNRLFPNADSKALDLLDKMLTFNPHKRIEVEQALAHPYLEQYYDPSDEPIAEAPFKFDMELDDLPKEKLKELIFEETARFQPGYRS
# T2 sequence (P42336 whole entry): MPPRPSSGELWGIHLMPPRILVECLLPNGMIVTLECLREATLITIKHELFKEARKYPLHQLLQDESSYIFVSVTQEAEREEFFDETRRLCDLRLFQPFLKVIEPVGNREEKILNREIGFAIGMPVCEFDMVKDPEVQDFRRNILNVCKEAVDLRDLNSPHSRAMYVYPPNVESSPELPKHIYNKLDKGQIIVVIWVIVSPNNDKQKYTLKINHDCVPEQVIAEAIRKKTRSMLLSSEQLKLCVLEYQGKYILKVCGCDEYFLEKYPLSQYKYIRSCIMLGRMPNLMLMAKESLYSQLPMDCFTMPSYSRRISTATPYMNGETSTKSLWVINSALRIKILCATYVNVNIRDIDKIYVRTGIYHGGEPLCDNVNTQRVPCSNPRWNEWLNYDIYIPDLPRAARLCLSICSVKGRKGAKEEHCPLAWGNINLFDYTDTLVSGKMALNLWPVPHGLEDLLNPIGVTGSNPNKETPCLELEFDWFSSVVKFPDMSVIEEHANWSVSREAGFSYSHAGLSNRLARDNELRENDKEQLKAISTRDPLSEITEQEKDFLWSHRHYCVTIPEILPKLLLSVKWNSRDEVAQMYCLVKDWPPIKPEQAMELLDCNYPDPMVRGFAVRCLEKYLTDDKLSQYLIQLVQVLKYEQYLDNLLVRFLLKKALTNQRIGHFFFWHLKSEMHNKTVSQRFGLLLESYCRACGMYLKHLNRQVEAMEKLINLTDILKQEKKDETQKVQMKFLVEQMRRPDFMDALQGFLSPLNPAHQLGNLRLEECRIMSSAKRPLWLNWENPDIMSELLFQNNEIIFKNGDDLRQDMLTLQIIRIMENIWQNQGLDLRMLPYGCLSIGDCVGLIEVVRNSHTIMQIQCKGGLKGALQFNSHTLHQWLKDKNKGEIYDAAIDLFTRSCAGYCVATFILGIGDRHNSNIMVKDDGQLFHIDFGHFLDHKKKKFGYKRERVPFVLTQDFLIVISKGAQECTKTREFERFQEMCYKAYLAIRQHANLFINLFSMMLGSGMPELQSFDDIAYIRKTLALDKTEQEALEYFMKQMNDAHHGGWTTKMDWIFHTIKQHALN
# T2 sequence (P27986 whole entry partner): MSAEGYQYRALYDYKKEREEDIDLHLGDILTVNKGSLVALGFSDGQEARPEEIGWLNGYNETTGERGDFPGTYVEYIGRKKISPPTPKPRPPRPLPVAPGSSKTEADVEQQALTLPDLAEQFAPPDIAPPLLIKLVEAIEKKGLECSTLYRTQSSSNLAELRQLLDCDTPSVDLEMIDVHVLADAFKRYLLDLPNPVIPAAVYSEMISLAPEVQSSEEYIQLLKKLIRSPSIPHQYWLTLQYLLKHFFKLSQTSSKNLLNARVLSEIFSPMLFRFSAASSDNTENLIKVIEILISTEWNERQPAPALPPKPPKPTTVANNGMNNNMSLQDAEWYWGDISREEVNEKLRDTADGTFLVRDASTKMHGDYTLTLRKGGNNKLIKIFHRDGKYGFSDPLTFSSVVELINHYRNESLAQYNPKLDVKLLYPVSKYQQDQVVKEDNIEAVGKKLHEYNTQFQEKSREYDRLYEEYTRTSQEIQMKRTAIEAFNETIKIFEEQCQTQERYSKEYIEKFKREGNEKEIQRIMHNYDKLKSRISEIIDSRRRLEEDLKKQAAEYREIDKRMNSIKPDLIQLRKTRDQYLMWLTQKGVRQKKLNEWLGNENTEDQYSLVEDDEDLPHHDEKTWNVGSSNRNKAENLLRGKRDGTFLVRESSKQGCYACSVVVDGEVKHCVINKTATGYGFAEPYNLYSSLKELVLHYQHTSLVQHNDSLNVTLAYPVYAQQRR
pIC50 ([1]; ERK2 enzyme assay (2)),pIC50 (human PI3Kα protein),pIC50 [1],SMILES
5.00 to 6.00,5.00 to 6.00,,CC(C)c1cnnc(Nc2ccc3ncc(C(=O)Nc4ccncc4)cc3n2)c1 [Example 0669]
> 6.00,5.00 to 6.00,,"c1cnnc(Nc2ccc3ncc(-c4cnn(CCCN5CCOCC5)c4)cc3n2)c1 [Example 0601, 7-(1-(3-Morpholinopropyl)-1H-pyrazol-4-yl)-N-(pyridazin-3-yl)-1,5-naphthyridine-2-amine]"
,> 6.00,> 6.00,CC(C)c1cnnc(Nc2ccc3ncc(-c4cn(C)nc4N4CCCCC4)cc3n2)c1 [Example 0936]
> 6.00,> 6.00,,CC(C)c1cnnc(Nc2ccc3ncc(NC4CCC4)cc3n2)c1 [Example 0879]
5.00 to 6.00,> 6.00,,"COCCC(=O)Nc1cnc2ccc(Nc3cc(C(C)C)cnn3)nc2c1 [Example 0632, N-(6-((5-isopropylpyridazin-3-yl)amino)-1,5-naphthyridin-3-yl)-3-methoxypropanamide]"
,> 6.00,> 6.00,CC(C)c1cnnc(Nc2ccc3ncc(-c4cn(C)nc4NC4CCCC4)cc3n2)c1 [Example 0948]
,> 6.00,> 6.00,"CC(C)c1cnnc(Nc2ccc3ncc(-c4cn(C)nc4N(C)C)cc3n2)c1 [Example 0938, 7-(3-(Dimethylamino)-1-methyl-1H-pyrazol-4-yl)-N-(5-isopropylpyridazin-3-yl)-1,5-naphthyridine-2-amine]"
> 6.00,> 6.00,,"CC(C)c1cnnc(Nc2ccc3ncc(-c4cnn(CCN5C[C@@H](C)O[C@@H](C)C5)c4)cc3n2)c1 [Example 0617, 7-(1-(2-((2S,6R)-2,6-dimethylmorpholino)ethyl)-1H-pyrazol-4-yl)-N-(5-isopropylpyridazin-3-yl)-1,5-naphthyridine-2-amine]"
> 6.00,5.00 to 6.00,,CC(C)c1cnnc(Nc2ccc3ncc(N4CCN(CC(F)(F)F)CC4)cc3n2)c1 [Example 0875]
> 6.00,> 6.00,,"CC(C)c1cnnc(Nc2ccc3ncc(-c4cn(C)nc4COC4CN(C)C4)cc3n2)c1 [Example 0823, N-(5-isopropylpyridazin-3-yl)-7-(1-methyl-3-(((1-methylazetidin-3-yl)oxy)methyl)-1H-pyrazol-4-yl)-1,5-naphthyridine-2-amine]"
> 6.00,> 6.00,,"Cn1cc(-c2cnc3ccc(Nc4cc(C5CCC5)cnn4)nc3c2)cn1 [Example 0577, N-(5-cyclobutylpyridazin-3-yl)-7-(1-methyl-1H-pyrazol-4-yl)-1,5-naphthyridine-2-amine]"
> 6.00,> 6.00,,CC(C)c1cnnc(Nc2ccc3ncc(-c4cnc(OC5CCN(C)CC5)s4)cc3n2)c1 [Example 0507]
> 6.00,> 6.00,,"CCOC(=O)N1CCN(CCCn2cc(-c3cnc4ccc(Nc5cc(C(C)C)cnn5)nc4c3)cn2)CC1 [Example 0437, Ethyl 4-(3-(4-(6-((5-isopropylpyridazin-3-yl)amino)-1,5-naphthyridin-3-yl)-1H-pyrazol-1-yl)propyl)piperazine-1-carboxylate]"
> 6.00,> 6.00,,CC(C)C(=O)N1CCC(Cn2cc(-c3cnc4ccc(Nc5cc(C(C)C)cnn5)nc4c3)cn2)CC1 [Example 0536]
> 6.00,> 6.00,,CC(C)c1cnnc(Nc2ccc3ncc(-c4cn(C)nc4NCc4cccnc4)cc3n2)c1 [Example 0833]
> 6.00,> 6.00,,CC(C)c1cnnc(Nc2ccc3ncc(-c4cnn(CCCN5CC(C(N)=O)C5)c4)cc3n2)c1 [Example 0670]
,> 6.00,> 6.00,"CC(C)c1cnnc(Nc2ccc3ncc(-c4cn(C)nc4COC4COC4)cc3n2)c1 [Example 0911, N-(5-isopropylpyridazin-3-yl)-7-(1-methyl-3-((oxetan-3-yloxy)methyl)-1H-pyrazol-4-yl)-1,5-naphthyridine-2-amine]"

pIC50 ([1]; ERK2 enzyme assay (2)),pIC50 (human PI3Kα protein),pIC50 [1],SMILES
> 6.00,> 6.00,,"COC1(C)CN(CCCn2cc(-c3cnc4ccc(Nc5cc(C(C)C)cnn5)nc4c3)cn2)C1 [Example 0794, N-(5-isopropylpyridazin-3-yl)-7-(1-(3-(3-methoxy-3-methylazetidin-1-yl)propyl)-1H-pyrazol-4-yl)-1,5-naphthyridine-2-amine]"
> 6.00,> 6.00,,Cc1nn(C)cc1-c1cnc2ccc(Nc3cc(CC4CCCCC4)cnn3)nc2c1 [Example 0789]
,> 6.00,> 6.00,COCCN(C)c1nn(C)cc1-c1cnc2ccc(Nc3cc(C(C)C)cnn3)nc2c1 [Example 0945]
,> 6.00,> 6.00,Cc1nn(C)cc1-c1cnc2ccc(Nc3cc(C(C)(C)C)cnn3)nc2c1 [Example 0917]
5.00 to 6.00,5.00 to 6.00,,"CC(C)c1cnnc(Nc2ccc3ncc(C(=O)NCCO)cc3n2)c1 [Example 0655, N-(2-hydroxyethyl)-6-((5-isopropylpyridazin-3-yl)amino)-1,5-naphthyridine-3-carboxamide]"
> 6.00,5.00 to 6.00,,"CC(C)c1cnnc(Nc2ccc3ncc(C(N)=O)cc3n2)c1 [Example 0640, 6-((5-isopropylpyridazin-3-yl)amino)-1,5-naphthyridine-3-carboxamide]"
> 6.00,> 6.00,,Cc1ncc(-c2nn(C)cc2-c2cnc3ccc(Nc4cc(C(C)C)cnn4)nc3c2)s1 [Example 0587]
5.00 to 6.00,5.00 to 6.00,,CC(C)c1cnnc(Nc2ccc3ncc(N4CCCN(C)CC4)cc3n2)c1 [Example 0871]
> 6.00,> 6.00,,"CC(C)c1cnnc(Nc2ccc3ncc(-c4cnn(CCCN5CC(N(C)S(C)(=O)=O)C5)c4)cc3n2)c1 [Example 0721, N-(1-(3-(4-(6-((5-isopropylpyridazin-3-yl)amino)-1,5-naphthyridin-3-yl)-1H-pyrazol-1-yl)propyl)azetidin-3-yl)-N-methylmethane sulfonamide]"
,> 6.00,> 6.00,CC(C)c1cnnc(Nc2ccc3ncc(N4CC5CCC(C4)O5)cc3n2)c1 [Example 0903]
> 6.00,> 6.00,,CCC1CN(CCCn2cc(-c3cnc4ccc(Nc5cc(C(C)C)cnn5)nc4c3)cn2)CCO1 (centres unmarked) [Example 0684]
> 6.00,> 6.00,,"CC(C)c1cnnc(Nc2ccc3ncc(-c4cn(C)nc4N)cc3n2)c1 [Example 0636, 7-(3-amino-1-methyl-1H-pyrazol-4-yl)-N-(5-isopropylpyridazin-3-yl)-1,5-naphthyridine-2-amine]"
> 6.00,> 6.00,,CN(C)c1cnnc(Nc2ccc3ncc(-c4cnn(C)c4)cc3n2)c1 [Example 0518]
> 6.00,> 6.00,,"CC(C)c1cnnc(Nc2ccc3ncc(-c4cn(C)nc4COc4cccc(OCCN(C)C)c4)cc3n2)c1 [Example 0809, 7-(3-((3-(2-(dimethylamino)ethoxy)phenoxy)methyl)-1-methyl-1H-pyrazol-4-yl)-N-(5-isopropylpyridazin-3-yl)-1,5-naphthyridine-2-amine]"
> 6.00,> 6.00,,"CC(C)c1cnnc(Nc2ccc3ncc(C4=CCN(C(=O)OC(C)(C)C)CC4)cc3n2)c1 [Example 0880, tert-butyl 4-(6-((5-isopropylpyridazin-3-yl)amino)-1,5-naphthyridin-3-yl)-5,6-dihydropyridine-1(2H)-carboxylate]"
> 6.00,5.00 to 6.00,,CC(C)c1cnnc(Nc2ccc3ncc(N4CC(OCC5CC5)C4)cc3n2)c1 [Example 0869]
> 6.00,> 6.00,,"COC(CN1CC(F)(F)C1)Cn1cc(-c2cnc3ccc(Nc4cc(C(C)C)cnn4)nc3c2)cn1 (centres unmarked) [Example 0814, 7-(1-(3-(3,3-difluoroazetidin-1-yl)-2-methoxypropyl)-1H-pyrazol-4-yl)-N-(5-isopropylpyridazin-3-yl)-1,5-naphthyridine-2-amine]"
